Patent US7786121B2, “Derivatives of hydroxamic acid as metalloproteinase inhibitors” (Vernalis (Oxford) Limited, priority 2003, dated 2010)

What was measured:
[1] = test system: IL2-induced peritoneal recruitment of lymphocytes; assay: IL2-induced peritoneal recruitment of lymphocytes in mice; format: in vivo; conditions: C3H mice
Protocol: B. Biological Assay: IL2-Induced Peritoneal Recruitment of Lymphocytes in Mice Protocol
C3H Mice (Elevage Janvier) (8 week old, n=6) received IL2 (SPRI, 20 μg/kg, 40 ml/kg, ip) 15 min after administration of the test molecules. Twenty-four hours later, the animals were sacrificed and the lavage of the peritoneal cavity was conducted using 3×5 ml PBS-1 mM EDTA (+4° C.). After centrifugation (10 min at 3000 rpm), the pellet was resuspended in 1 ml PBS. The peritoneal cells were counted using a Beckman/Coulter counter. IL2 was solubilized in saline. The test compounds of the invention were solubilized or suspended in 0.5% carboxymethylcellulose (CMC)/0.25% Tween-20 and orally administered. […]

[2] = target: 92 kDa gelatinase (MMP9) (Homo sapiens, UniProt P14780); assay: MMP9 enzyme inhibition assay, coumarin-labelled peptide substrate; format: biochemical; conditions: recombinant human MMP-9, 37° C., 2 hours; read-out: MMP-9 (nM) inhibitory activity
92 kDa gelatinase (MMP9), sequence (P14780 107-707 limits assumed): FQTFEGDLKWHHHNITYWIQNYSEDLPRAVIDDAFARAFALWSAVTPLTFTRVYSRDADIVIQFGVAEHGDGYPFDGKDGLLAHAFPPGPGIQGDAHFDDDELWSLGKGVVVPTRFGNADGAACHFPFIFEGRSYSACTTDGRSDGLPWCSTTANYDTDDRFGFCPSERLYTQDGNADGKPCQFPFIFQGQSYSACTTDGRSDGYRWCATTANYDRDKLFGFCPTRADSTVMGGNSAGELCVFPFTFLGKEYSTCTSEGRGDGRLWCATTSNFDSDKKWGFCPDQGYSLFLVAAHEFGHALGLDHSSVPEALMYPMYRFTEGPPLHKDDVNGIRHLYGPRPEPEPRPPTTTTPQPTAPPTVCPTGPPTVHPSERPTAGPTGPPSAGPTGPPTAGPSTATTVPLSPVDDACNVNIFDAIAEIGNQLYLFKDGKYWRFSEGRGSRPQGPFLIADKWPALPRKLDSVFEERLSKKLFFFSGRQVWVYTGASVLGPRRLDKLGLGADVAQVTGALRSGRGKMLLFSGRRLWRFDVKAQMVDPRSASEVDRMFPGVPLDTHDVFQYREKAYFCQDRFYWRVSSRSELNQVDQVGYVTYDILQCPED
Protocol: (§1) Compounds of the invention were tested for inhibitory activity against 92 kDa gelatinase (MMP9) in an assay using a coumarin-labelled peptide substrate, (7-methoxycoumarin-4-yl)acetyl-Pro-Leu-Gly-Leu-(3-[2,4-dinitrophenyl]-L-2,3-diaminopropionyl)-Ala-Arg-NH2 (McaPLGLDpaAR) (Knight et al, FEBS Lett. 1992; 263-266).
(§2) Stock solutions were made up as follows: • Assay Buffer: 100 mM Tris-HCl pH 7.6 containing 100 mM NaCl, 10 mM CaCl2, and 0.05% Brij 35 • Substrate: 0.4 mM McaPLGLDpaAR (from Bachem) (0.437 mg/ml) stock solution in 100% • DMSO (stored at −20° C.). Dilute to 8 μM in assay buffer. • Enzyme: Recombinant human 92 kDa gelatinase (MMP-9; APMA (4-aminophenylmercuric acetate)-activated if necessary) appropriately diluted in assay buffer.
(§3) Test Compounds were prepared initially as 10 mM compound solution in 100% DMSO, diluted to 1 mM in 100% DMSO, then serially diluted 3-fold in 100% DMSO across columns 1-10 of a 96-well microtitre plate Assay concentration range, 100 μM (column 1) to 5.1 nM (column 10)
(§4) The assay was performed in a total volume of 100 μl upper well in 96-well microtitre plates. Activated enzyme (20 μl) was added to the wells followed by 20 μl of assay buffer. Appropriate concentrations of test compounds dissolved in 10 μl of DMSO were then added followed by 50 μl of McaPLGLDpaAR (8 μM, prepared by dilution of DMSO stock in assay buffer). For each assay ten concentrations of test compound were examined in duplicate. Control wells lack either enzyme or test compound. The reactions were incubated at 37° C. for 2 hours. The fluorescence at 405 nm was measured immediately with an SLT Fluostar fluorometer (SLT Labinstruments GmbH, Grödig, Austria) using 320 nm excitation, without stopping the reaction.
(§5) The effect of the test compound was determined from the dose response curve generated by the 10 duplicate concentrations of inhibitor. The IC50 (the concentration of compound required to give a 50% decrease in enzyme activity) was obtained by fitting data to the equation, Y=a+((b−a)/(1+(c/X)^d)). (Y=inhibition achieved for a particular dose; X=the dose in nM; a=minimum y or zero % inhibition; b=maximum y or 100% inhibition; c=is the IC50; d=is the slope). The result was rounded to one significant figure.

[3] = target: T1, MMP-2 (Homo sapiens, UniProt P08253); assay: MMP-2 enzyme inhibition; format: biochemical; conditions: read-out: MMP-2 (nM) inhibitory activity
T1 sequence (P08253 110-660): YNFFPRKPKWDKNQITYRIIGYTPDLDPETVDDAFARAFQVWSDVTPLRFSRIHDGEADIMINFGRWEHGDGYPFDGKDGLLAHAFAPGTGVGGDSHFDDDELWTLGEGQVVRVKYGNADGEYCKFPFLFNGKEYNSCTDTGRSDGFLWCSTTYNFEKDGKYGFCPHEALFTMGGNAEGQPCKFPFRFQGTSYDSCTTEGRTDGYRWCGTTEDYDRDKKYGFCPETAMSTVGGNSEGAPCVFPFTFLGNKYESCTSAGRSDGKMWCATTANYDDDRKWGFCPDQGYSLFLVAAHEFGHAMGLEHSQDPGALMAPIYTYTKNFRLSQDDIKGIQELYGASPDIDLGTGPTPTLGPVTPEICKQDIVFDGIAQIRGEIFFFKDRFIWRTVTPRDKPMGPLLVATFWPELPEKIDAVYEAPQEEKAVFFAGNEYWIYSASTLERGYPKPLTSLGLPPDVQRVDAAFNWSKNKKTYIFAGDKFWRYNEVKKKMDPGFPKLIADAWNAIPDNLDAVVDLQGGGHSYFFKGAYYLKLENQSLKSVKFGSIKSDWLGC
Text: For instance the inhibitory activities of some of the compounds of the examples against MMP-12, MMP-9, MMP-2 and MMP-1 are set out in the following table: […]

[4] = target: T2, collagenase (MMP1) (Homo sapiens, UniProt P03956); assay: MMP1 enzyme inhibition assay, coumarin-labelled peptide substrate; format: biochemical; conditions: read-out: MMP-1 (nM) inhibitory activity
T2 sequence (P03956 100-469): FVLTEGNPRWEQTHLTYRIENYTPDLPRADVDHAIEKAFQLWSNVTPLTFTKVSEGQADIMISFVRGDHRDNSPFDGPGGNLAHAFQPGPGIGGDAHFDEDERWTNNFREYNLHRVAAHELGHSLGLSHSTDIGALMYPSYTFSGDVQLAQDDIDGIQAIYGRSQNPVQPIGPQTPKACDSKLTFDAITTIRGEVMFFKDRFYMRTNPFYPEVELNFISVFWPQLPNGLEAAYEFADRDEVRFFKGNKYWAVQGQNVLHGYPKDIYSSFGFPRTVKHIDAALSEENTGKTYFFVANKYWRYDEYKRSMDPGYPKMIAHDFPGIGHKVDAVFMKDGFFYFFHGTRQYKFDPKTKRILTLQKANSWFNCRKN
Protocol: as §2, §3, §4, §5
as §1, with “collagenase (MMP1)” for “92 kDa gelatinase (MMP9)”, “263-266). The protocol for this assay was as described for the MMP9 assay above.” for “263-266).”

[5] = target: metalloelastase (MMP12) (Homo sapiens, UniProt P39900); assay: MMP12 enzyme inhibition assay, coumarin-labelled peptide substrate; format: biochemical; conditions: read-out: MMP-12 (nM) inhibitory activity
metalloelastase (MMP12), sequence (P39900 106-470): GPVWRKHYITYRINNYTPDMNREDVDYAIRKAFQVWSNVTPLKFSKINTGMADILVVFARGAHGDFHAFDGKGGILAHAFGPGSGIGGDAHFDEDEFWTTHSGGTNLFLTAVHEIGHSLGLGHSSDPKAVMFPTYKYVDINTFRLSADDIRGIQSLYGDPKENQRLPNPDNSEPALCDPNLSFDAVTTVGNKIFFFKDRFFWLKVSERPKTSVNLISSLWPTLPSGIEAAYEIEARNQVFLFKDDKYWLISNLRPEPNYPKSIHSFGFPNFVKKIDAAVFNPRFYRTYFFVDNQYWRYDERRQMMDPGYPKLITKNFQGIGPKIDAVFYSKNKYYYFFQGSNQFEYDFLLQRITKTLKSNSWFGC
Protocol: as §2, §3, §4, §5
as §1, with “metalloelastase (MMP12)” for “92 kDa gelatinase (MMP9)”, “263-266). The protocol for this assay was as described for the MMP9 assay above.” for “263-266).”

[6] = 3 mg/kg po, 15 min before IL2 ip, cells counted 24 h later

| IC50 [2] | IC50 [3] | IC50 [4] | IC50 [5] | Compound | % Inhibition of IL2-induced peritoneal recruitment ([1]; 1 mg/kg sc (reference compound)) | % Inhibition of IL2-induced peritoneal recruitment [1, 6] |
| --- | --- | --- | --- | --- | --- | --- |
| – | – | – | – | C[C@@H]1C[C@H]2[C@@H]3CCC4=CC(=O)C=C[C@]4(C)[C@@]3(F)[C@@H](O)C[C@]2(C)[C@@]1(O)C(=O)CO [Dexamethazone, Dexamethasone, reference compound] | 76% | – |
| < 100 nM | < 100 nM | > 10000 nM | < 100 nM | CCOc1ccc(CCC[C@@H](C(=O)N2CCN(c3ccc(OC)cc3)CC2)[C@H](O)C(=O)NO)cc1 [Example 4, 6-(4-ethoxy-phenyl)-2S-hydroxy-3R-[4-(4-methoxy-phenyl)-piperazine-1-carbonyl]-hexanoic acid hydroxyamide] | – | 34% |
| < 100 nM | < 100 nM | > 10000 nM | < 100 nM | CCOc1ccc(CCC[C@@H](C(=O)N2CCN(c3ccccn3)CC2)[C@H](O)C(=O)NO)cc1 [Example 5, 6-(4-ethoxy-phenyl)-2S-hydroxy-3R-(4-pyridin-2-yl-piperazine-1-carbonyl)-hexanoic acid hydroxyamide] | – | 50% |
| 100 to 1000 nM | 100 to 1000 nM | > 10000 nM | < 100 nM | CCOc1ccc(CCC[C@@H](C(=O)N2CCN(c3ccncc3)CC2)[C@H](O)C(=O)NO)cc1 [Example 6, 6-(4-ethoxy-phenyl)-2S-hydroxy-3R-(4-pyridin-4-yl-piperazine-1-carbonyl)-hexanoic acid hydroxyamide] | – | 33% |
| < 100 nM | < 100 nM | > 10000 nM | < 100 nM | CCOc1ccc(CCC[C@@H](C(=O)N2CCN(Cc3ccc4c(c3)OCO4)CC2)[C@H](O)C(=O)NO)cc1 [Example 12, 3R-(4-benzo[1,3]dioxol-5-ylmethyl-piperazine-1-carbonyl)-6-(4-ethoxy-phenyl)-2S-hydroxy-hexanoic acid hydroxyamide] | – | – |
| < 100 nM | < 100 nM | > 10000 nM | < 100 nM | CCOc1ccc(CCC[C@@H](C(=O)N2CCN(Cc3ccncc3)CC2)[C@H](O)C(=O)NO)cc1 [Example 13, 6-(4-ethoxy-phenyl)-2S-hydroxy-3R-(4-pyridin-4-ylmethyl-piperazine-1-carbonyl)-hexanoic acid hydroxyamide] | – | 47% |
| < 100 nM | < 100 nM | > 10000 nM | < 100 nM | CCOc1ccc(CCC[C@@H](C(=O)N2CCN(Cc3ccccc3)CC2)[C@H](O)C(=O)NO)cc1 [Example 14, 6-(4-ethoxy-phenyl)-2S-hydroxy-3R-(4-benzylpiperazine-1-carbonyl)-hexanoic acid hydroxyamide] | – | 30% |
| < 100 nM | < 100 nM | > 10000 nM | < 100 nM | CCOc1ccc(CCC[C@@H](C(=O)N2CCN(c3ccccc3F)CC2)[C@H](O)C(=O)NO)cc1 [Example 20, 6-(4-ethoxy-phenyl)-2S-hydroxy-3R-[4-(2-fluoro-phenyl)-piperazine-1-carbonyl]-hexanoic acid hydroxyamide] | – | 57% |
| < 100 nM | < 100 nM | > 10000 nM | < 100 nM | CCOc1ccc(CCC[C@@H](C(=O)N2CCN(c3ccccc3F)CC2)[C@H](OC)C(=O)NO)cc1 [Example 62, 6-(4-ethoxy-phenyl)-2S-methoxy-3R-[4-(2-fluoro-phenyl)-piperazine-1-carbonyl]-hexanoic acid hydroxyamide] | – | – |
